# Molecular target: T1, influenza A virus (IAV) PA-Nter fragment (amino acids 1-209) harbouring the influenza endonuclease activity (Influenza A virus, UniProt P31343)
# T1 construct: PA-Nter fragment (amino acids 1-209); made in house
# Assay: FRET endonuclease activity assay
# Format: biochemical
# Details: @ 10 μM; compound-treated compared to untreated
row,SMILES,FRET % reduction of v0
1,O=C(NCc1ccc(Cl)cc1)c1nc(Cc2ccccc2Br)nc(O)c1O,37% @ 10 μM
2,COC(=O)c1nc(CC2CCCCC2)n(C)c(=O)c1O,25% @ 10 μM
3,COC(=O)c1c(O)c(=O)nc(Cc2ccccc2Br)n1Cc1ccccc1,23% @ 10 μM

# Same assay, conditions: calculated from initial reaction velocities (v0); 0.5 μM PA-Nter, 1.6 μM RNA substrate
row,SMILES,IC50
1,COC(=O)c1nc(CC2(c3ccccc3)CCCC2)nc(O)c1O,410 nM
2,NC(=O)c1nc(CC2(c3ccccc3)CCCC2)nc(O)c1O,240 nM
3,O=C(NCc1ccccc1)c1nc(CC2(c3ccccc3)CCCC2)nc(O)c1O,1100 nM
4,O=C(O)c1nc(Cc2ccccc2-c2ccccc2)nc(O)c1O,40 nM
5,O=C(NCc1ccccc1)c1nc(Cc2ccccc2-c2ccccc2)nc(O)c1O,16000 nM
6,O=C(O)c1nc(CC2(c3ccccc3)CCCC2)nc(O)c1O,80 nM
7,CNC(=O)c1nc(CC2(c3ccccc3)CCCC2)nc(O)c1O,140 nM
8,CNC(=O)c1nc(Cc2ccccc2-c2ccccc2)nc(O)c1O,660 nM
9,CC(C)NC(=O)c1nc(Cc2ccccc2-c2ccccc2)nc(O)c1O,8200 nM
10,O=C(NCc1ccc(F)cc1)c1nc(Cc2ccccc2-c2ccccc2)nc(O)c1O,1700 nM
11,O=C(NCCc1ccccc1)c1nc(Cc2ccccc2-c2ccccc2)nc(O)c1O,3800 nM
12,O=C(c1nc(Cc2ccccc2-c2ccccc2)nc(O)c1O)N1CCCC1,1100 nM
13,O=C(O)c1nc(CC(c2ccccc2)c2ccccc2)nc(O)c1O,2500 nM
14,O=C(O)c1nc(Cc2ccc(F)cc2Br)nc(O)c1O,180 nM
15,COC(=O)c1nc(Cc2ccccc2-c2ccccc2C)nc(O)c1O,120 nM
16,CCCNC(=O)c1nc(Cc2ccccc2-c2ccccc2)nc(O)c1O,8800 nM
17,CCOC(=O)c1nc(Cc2cncn2Cc2ccccc2)nc(O)c1O,9500 nM
18,COC(=O)c1nc(Cc2ccc(F)cc2Br)nc(O)c1O,1500 nM
19,NC(=O)c1nc(Cc2ccc(F)cc2Br)nc(O)c1O,2700 nM
20,COC(=O)c1nc(Cc2ccccc2-c2cccc(C)c2)nc(O)c1O,350 nM
21,Cc1cccc(-c2ccccc2Cc2nc(C(N)=O)c(O)c(=O)[nH]2)c1,550 nM
22,CCOC(=O)c1nc(Cc2ccccc2-c2cc(C)ccc2C)nc(O)c1O,220 nM
23,CCOC(=O)c1nc(CC2CCCCC2)nc(O)c1O,3200 nM
24,COC(=O)c1nc(Cc2ccccc2Br)nc(O)c1OC(C)=O,7900 nM
25,CNC(=O)c1nc(Cc2ccccc2Br)nc(O)c1O,5700 nM
26,Cc1cccc(-c2ccccc2Cc2nc(O)c(O)c(C(=O)O)n2)c1,230 nM
27,Cc1ccc(C)c(-c2ccccc2Cc2nc(O)c(O)c(C(=O)O)n2)c1,30 nM

row,SMILES,IC50
1,CNC(=O)c1nc(CC2CCCCC2)nc(O)c1O,6500 nM
2,CNC(=O)c1nc(Cc2ccccc2-c2cc(C)ccc2C)nc(O)c1O,530 nM
3,CC(C)NC(=O)c1nc(Cc2cccc(Br)c2)nc(O)c1O,23000 nM
4,O=C(O)c1nc(CC2CCCCC2)nc(O)c1O,210 nM
5,COC(=O)c1nc(Cc2ccccc2-c2cc(C)ccc2C)nc(O)c1O,150 nM
6,O=C(O)c1nc(Cc2ccccc2Br)nc(O)c1O,250 nM
7,Cc1ccccc1Cc1nc(O)c(O)c(C(=O)O)n1,270 nM
8,O=C(NCc1ccc(F)cc1)c1nc(Cc2ccccc2Br)nc(O)c1O,27000 nM
9,Cc1ccc(C)c(-c2ccccc2Cc2nc(O)c(O)c(C(=O)OC(C)(C)C)n2)c1,1100 nM
10,O=C(NCc1ccc(Cl)cc1)c1nc(Cc2ccccc2-c2ccccc2)nc(O)c1O,1800 nM
11,Cc1ccccc1-c1ccccc1Cc1nc(O)c(O)c(C(=O)O)n1,240 nM
12,O=C(O)c1nc(Cc2cc(C(F)(F)F)ccc2Br)nc(O)c1O,160 nM
13,CNC(=O)c1nc(Cc2ccccc2-c2ccccc2)n(C)c(=O)c1O,23000 nM
14,Cn1c(CC2(c3ccccc3)CCCC2)nc(C(=O)O)c(O)c1=O,260 nM
15,Cn1c(Cc2ccccc2-c2ccccc2)nc(C(=O)O)c(O)c1=O,1300 nM
16,Cn1c(Cc2ccccc2-c2ccccc2)nc(C(N)=O)c(O)c1=O,1300 nM
17,CC(C)NC(=O)c1nc(Cc2ccccc2-c2ccccc2)n(C)c(=O)c1O,14000 nM
18,CNC(=O)c1nc(CC2(c3ccccc3)CCCC2)n(C)c(=O)c1O,410 nM
19,CNC(=O)c1nc(NS(=O)(=O)Cc2cccc(C)c2)n(C)c(=O)c1O,6800 nM
20,CNC(=O)c1nc(NS(=O)(=O)Cc2ccc(C)cc2)n(C)c(=O)c1O,13000 nM
21,Cn1c(NS(=O)(=O)Cc2ccc(Cl)cc2)nc(C(=O)O)c(O)c1=O,540 nM
22,O=C(O)c1c(O)c(=O)nc(Cc2ccccc2)n1Cc1ccccc1,3800 nM
23,O=C(O)c1c(O)c(=O)nc(Cc2ccccc2Br)n1Cc1ccccc1,5700 nM
24,CNC(=O)c1nc(NS(=O)(=O)Cc2ccccc2)n(C)c(=O)c1O,3000 nM
25,CNC(=O)c1nc(NS(=O)(=O)Cc2ccc(Cl)cc2)n(C)c(=O)c1O,5800 nM
26,COC(=O)c1c(O)c(=O)nc(Cc2ccccc2)n1Cc1ccccc1,19000 nM

# Source: US8921388B2, “Dihydroxypyrimidine carbonic acid derivatives and their use in the treatment, amelioration or prevention of a viral disease” (priority 2012, dated 2014)
